In patent US11739318B1, “Modified biosensors and biocatalysts and methods of use” (priority 2017, dated 2023):

Legend:
PobR-DM [1] = conditions: protocatechuate only at 1000-fold greater concentration than 4HB; cited from earlier work
PcaU1.2 = experiment: Specificity evaluation of PcaU1.2 sensor against similar aromatic molecules; type: cell-based, P. putida; conditions: relative to PCA response
Method: For specificity evaluation of the biosensor, PcaU1.2 was tested against molecules with similar functional groups, namely benzoate, 4-hydroxybenzoate (4HB), and catechol. The tested molecules were relatively smaller than PCA, to eliminate any rejection of the molecule from the binding pocket due to steric hindrance.

PobR-DM [2] = experiment: Whole cell biosensing of 4HB and benzoate with PobR-DM sensor plasmid; type: cell-based; conditions: P. putida with pPobR
Method: Whole cell biosensing of 4HB and benzoate: For 4HB sensing activity of the whole cell biosensor, a small scoop of pPobR transformed P. putida cells from a streaked plate or a glycerol stock was grown overnight as a seed culture. The overnight saturated seed culture was then diluted 100-fold in fresh growth medium, grown for 5-6 h at 30° C. to achieve an OD600 of ˜0.6, then distributed in deep 96-well blocks in a volume of 300-500 μL and induced with varying concentrations of 4HB or benzoate. The cultures were grown overnight (14-16 h) under vigorous shaking in a deep-well shaker (Taitec BioShakerM-BR-022UP). The cultures were diluted 100-fold in phosphate-buffered saline (PBS) with 1% sucrose and analyzed using an LSR II flow cytometer (BD Biosciences) or Accuri C6 flow cytometer (BD Biosciences) with standard settings for measurement of GFP fluorescence (ex 488 nm, em ˜530/30 nm). The arithmetic mean fluorescence value of ˜100,000 cells tightly gated based on forward and side scatter (FSC vs SSC) was used for a dose-response plot. Same protocol was followed for comparison of UbiC clones.

UbiC = UbiC (Escherichia coli, UniProt P26602); conditions: cited from earlier work
Chain of UbiC (P26602 whole entry): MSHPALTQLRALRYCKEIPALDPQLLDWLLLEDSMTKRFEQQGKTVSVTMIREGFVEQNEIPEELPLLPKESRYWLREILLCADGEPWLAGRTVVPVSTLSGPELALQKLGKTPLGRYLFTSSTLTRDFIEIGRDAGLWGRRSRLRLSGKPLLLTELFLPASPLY

Row | SMILES | response of the PobR-DM sensor in E. coli (PobR-DM [1]) | activation of the PcaU1.2 sensor (PcaU1.2) | other results
1 | O=[N+]([O-])c1ccc(O)cc1 [p-nitrophenol] | does not respond | – | –
2 | O=C(O)c1ccccc1 [benzoate] | – | Low but measurable activation | response of the whole cell 4HB biosensor (PobR-DM [2]): did not show any response; Ki (UbiC; inhibitor of UbiC): > 3 mM; affinity weaker / Kp higher than 4HB (UbiC; product inhibition of UbiC): 1000 fold
3 | O=C(O)c1ccc(O)c(O)c1 [protocatechuate, 3,4-dihydroxybenzoate] | very weakly responds | – | –
4 | Oc1ccccc1O [catechol] | – | a signal that was an appreciable fraction of PCA response | –
5 | O=C(O)c1ccc(O)cc1 [4HB, 4-hydroxybenzoic acid] | – | Low but measurable activation | –
